Data set [1] is described as follows: Absorption spectrum in methanol (195 - 400 nm). The data set is classed as physicochemical. The conditions noted are these: peak wavelength, 10 mg/ml. How it is done:
In order to determine the absorption spectrum, a solution of 10 mg/ml of methanol was prepared from each of the substances. The methanol in turn was used to adjust the zero absorbance in each of the wavelengths in the range of 195 - 400 nm.

A short description of data set [2]: Specific molar absorptivity of p-nitrolophine in MeOH at 379 nm. The class given is physicochemical. How it is done: As a preliminary step, in the case of p-nitrolophine the specific molar absorptivity of the molecule (ε) (A^11) was determined. To that end, 50.4 mg of p-nitrolophine were weight, they were dissolved in 100.0 mL of MeOH (ppa); 4 dilutions were then performed by taking 1.0, 2.0, 5.0 and 10.0 mL from this mother liquor and topping up each of them to a volume of 100.0 ml with MeOH (ppa). […]
The slope of the straight line obtained from these points (Y= 16.717x + 0.03; R2 = 0.9993) therefore coincides with the value of specific molar absorptivity of p-nitrolophine at 379 nm ε(379nm) = 16.717 A.U.L/mol [formula]

The nature of data set [3]: Photostability evaluation (irradiation in MeOH, TLC analysis). The class given is physicochemical. Particulars: MeOH, irradiated for 2 hours, 450W lamp; approximate estimation of the total sum of photoproducts. How it is done: All the irradiations preformed in the photostability studies were carried out in an ACE 7840 photoreactor using a 450W power ACE 7825 lamp.
The solvent used in the photostability test was methanol [MeOH] (ppa) (250 mL), using a concentration of […] of p-nitrolophine. The solution was irradiated for 2 hours, samples being taken at 10 minutes, 20 minutes, 1 hour and 2 hours, and being dried in a rotating evaporator. Each sample was analyzed by thin layer chromatography (TLC in Silica gel) using petroleum ether:ethyl acetate (4:1) as eluent. The chromatography plates were viewed under a 254 nm lamp and a 366 nm lamp, as well as by means of simultaneous viewing under both lamps (254 and 366 nm).
Specifically, three photoproducts (three blots) could be determined, which were isolated by preparative TLC.
A saturated solution of m-nitrolophine in MeOH was prepared to perform the study since the solubility in this solvent is low (approximately 0.2 mg/mL). Briefly, an amount of m-nitrolophine sufficient to ensure the saturation in 200 mL of MeOH throughout the night was left stirring. The solution was filtered and irradiated for 2 hours, samples of 10 mL being taken at 10 minutes, 20 minutes, 1 hour and 2 hours, and being dried in rotating evaporator. […]

The nature of data set [4]: UV spectrum: wavelengths of maximum absorption and absorbance (Cecil 2021 UV-Visible Spectrophotometer). The data set is classed as physicochemical.
Another data set deals with T1, ERα (Homo sapiens, UniProt P03372).
T1 construct: expressed in transfected cells; host or cells: HeLa (HELN-ERα)
T1 sequence (P03372 1-595): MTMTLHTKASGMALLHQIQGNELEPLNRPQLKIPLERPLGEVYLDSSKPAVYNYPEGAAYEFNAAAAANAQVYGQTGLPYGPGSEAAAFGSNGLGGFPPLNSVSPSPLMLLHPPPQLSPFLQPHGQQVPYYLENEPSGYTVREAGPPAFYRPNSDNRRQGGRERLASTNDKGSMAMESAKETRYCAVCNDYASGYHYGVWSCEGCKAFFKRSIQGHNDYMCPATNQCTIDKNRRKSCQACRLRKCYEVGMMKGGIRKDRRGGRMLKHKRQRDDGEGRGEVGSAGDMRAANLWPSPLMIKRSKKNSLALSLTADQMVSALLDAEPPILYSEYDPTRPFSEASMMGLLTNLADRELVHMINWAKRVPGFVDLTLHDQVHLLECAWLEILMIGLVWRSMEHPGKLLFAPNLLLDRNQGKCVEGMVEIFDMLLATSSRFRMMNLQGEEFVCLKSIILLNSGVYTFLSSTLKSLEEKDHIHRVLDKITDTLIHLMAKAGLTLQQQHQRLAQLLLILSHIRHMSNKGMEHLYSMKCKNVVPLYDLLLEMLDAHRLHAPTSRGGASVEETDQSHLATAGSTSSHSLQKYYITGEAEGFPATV
The data set is described as follows: Estrogenicity reporter gene bioassay (luciferase activity) in HELN-ERα cells. The data set is classed as cell-based. From the text: Briefly, the transactivation bioassay (Reporter gene assay) used are based on the use of breast and uterine cancer cell lines transfected with different native or modified hormone receptors. The resulting cell lines further contain a reporter gene regulated by estrogens through the estrogen response element, the globin promoter and the luciferase gene.
HELN-ERα and HELN-ERβ cell lines were obtained by means of transfecting the HeLa uterine cancer cell line. In a first phase, said cells were transfected with an estrogen sensitive response element and then with the estrogen receptor alpha or beta (ERα or ERβ). The selection of clones resistant to geneticin and puromycin was performed using a concentration of 1 mg/mL and 0.5 mg/mL, respectively. The maintenance medium as well as the experimental medium of these 2 cell lines is DMEM F12 without phenol red supplemented with 6% of FBS (lacking of estrogens), 1% of penicillin / streptomycin, 1 mg/mL of geneticin and 0.5 µg/mL of puromycin.
The cells were seeded at a density of 5x10^4 cells per well in white opaque 96 well plates in 150 µL of experimental medium. After 8 hours, the compounds to be assayed (p-nitrolophine and estradiol) were prepared (concentrated 4x) in the same medium and were added to each well (50 µl). The cells were incubated for 16 hours at 37°C. At the end of the incubation, the medium was removed and replaced with fresh medium containing […] luciferin [at that concentration, luciferin diffuses into cell producing a luminescent signal which is stable after 5 minutes and for at least 2 hours]. The plates were then introduced in the luminometer to measure the luminescence for 2 seconds. A YicroBeta Trilux luminometer (EGG Wallac) apparatus was used to detect luciferase activity.
The assays were preformed in quadruple for each concentration (0.01-10 µM) in at least three independent experiments. […] The values of luciferase activity obtained were analyzed using the one-way ANOVA statistic test. The differences were considered significant when P was less than […] (P < 0.05).
(In general: In a reporter assay the amount or activity of a reporter protein is the signal.)

Here are results for one compound from patent publication EP2444396A1, “PHOTOPROTECTIVE COMPOSITION” (Apoteknos Para La Piel, S.L., priority 2009, dated 2010).

Several values for one entry are separate records, joined by “and”; a condition that tells them apart may be missing. Identical values can stand only once.

Turning to `O=[N+]([O-])c1ccc(-c2nc(-c3ccccc3)c(-c3ccccc3)[nH]2)cc1` [p-nitrolophine, 2-(4-nitrophenyl)-4,5-diphenyl-1H-imidazole], in data set [1], the maximum absorption came to 379 nm. The “specific molar absorptivity ε(379nm)” value in data set [2] (379 nm, slope of the straight line) is recorded as 16.717 A.U.L/mol. The “Abs. at 379 nm (A.U.)” value in data set [2] (Concentration (mol) 0.0000147) is 0.2572 A.U. The “Abs. at 379 nm (A.U.)” value in data set [2] (Concentration (mol) 0.00002953) came out at 0.5214 A.U. Moreover, the “Abs. at 379 nm (A.U.)” value in data set [2] (Concentration (mol) 0.00007382) came to 1.301 A.U. In addition, in data set [2] (Concentration (mol) 0.00014764), the “Abs. at 379 nm (A.U.)” value turned out to be 2.4819 A.U. In addition, the degradation entry in data set [3] is “lower than 5%”. Further, the “UV spectrum A (a.u)” value in data set [4] (absorbance at the maximum of the same line) was 0.715 a.u and 0.669 a.u and 0.774 a.u. Moreover, the “UV spectrum λ (nm)” value in data set [4] (wavelengths of the maximum absorption) was 221.0 nm and 255.0 nm and 379.0 nm. At ERα, this compound had an activity at 0.01 µM of 11.1 ± 0.9%, an activity at 0.03 µM of 11.7 ± 0.9%, an activity at 0.1 µM of 10.7 ± 1.1% and an activity at 0.3 µM of 11.3 ± 1.5%. Further, on ERα, the activity at 1 µM is 11.1 ± 1.1%, the activity at 3 µM was 11.2 ± 1.4% and the activity at 10 µM was determined as 11.6 ± 1.5%. For the same compound, the estrogenicity result on ERα (HELN-ERα line, conclusion in words) is listed as “not estrogenic”.
